According to US12509423B2, “Compound, aldehyde dehydrogenase 2 activating agent, pharmaceutical composition, and therapeutic and/or prophylactic drug” (Alchemedicine, Inc., priority 2020, dated 2025):

Assays:
[1] = Metabolic stability with human hepatic microsomes; format: in vitro ADME; settings: human hepatic microsomes 0.1 mg protein/mL, 0.1 μmol/L test compound, after 30 minutes, 37° C.
Method: The specific method is as follows.
• (1) Fifty microliter-portions were taken from 0.2 μmol/L test compound diluted with β-NADPH solution. • (2) Fifty microliters of 0.2 mg protein/mL human hepatic microsome solution was added to each (except for a sample with a reaction time of 0 minutes). • (3) Incubation was performed with shaking at 37° C. for 30 minutes (concentration in reaction sample: 0.1 μmol/L test compound, 0.1 mg protein/mL human hepatic microsome). • (4) After incubation, 400 μL of methanol was added to terminate the reaction. • (5) To the sample with a reaction time of 0 minutes, 50 μL of 0.2 mg protein/mL hepatic microsome solution was added. • (6) Each of the samples from (4) and (5) was left to stand at −20° C. for 30 minutes or longer, and then centrifuged at 4° C. and 3,000 rpm for approximately 10 minutes. • (7) The supernatant was subjected to measurement with LC/MS/MS, and, based on the peak area obtained for the unchanged form, the residual rate (%) of the unchanged form was calculated as that for the case with an incubation time of 0 minutes was assumed as 100%.

[2] = molecular target: hERG (human Ether-a-go-go Related Gene) channel (Homo sapiens, UniProt Q12809); test: hERG channel inhibition effect (whole-cell patch clamp); format: cell-based; settings: 22 to 25° C.
Sequence of hERG (human Ether-a-go-go Related Gene) channel (Q12809 whole entry): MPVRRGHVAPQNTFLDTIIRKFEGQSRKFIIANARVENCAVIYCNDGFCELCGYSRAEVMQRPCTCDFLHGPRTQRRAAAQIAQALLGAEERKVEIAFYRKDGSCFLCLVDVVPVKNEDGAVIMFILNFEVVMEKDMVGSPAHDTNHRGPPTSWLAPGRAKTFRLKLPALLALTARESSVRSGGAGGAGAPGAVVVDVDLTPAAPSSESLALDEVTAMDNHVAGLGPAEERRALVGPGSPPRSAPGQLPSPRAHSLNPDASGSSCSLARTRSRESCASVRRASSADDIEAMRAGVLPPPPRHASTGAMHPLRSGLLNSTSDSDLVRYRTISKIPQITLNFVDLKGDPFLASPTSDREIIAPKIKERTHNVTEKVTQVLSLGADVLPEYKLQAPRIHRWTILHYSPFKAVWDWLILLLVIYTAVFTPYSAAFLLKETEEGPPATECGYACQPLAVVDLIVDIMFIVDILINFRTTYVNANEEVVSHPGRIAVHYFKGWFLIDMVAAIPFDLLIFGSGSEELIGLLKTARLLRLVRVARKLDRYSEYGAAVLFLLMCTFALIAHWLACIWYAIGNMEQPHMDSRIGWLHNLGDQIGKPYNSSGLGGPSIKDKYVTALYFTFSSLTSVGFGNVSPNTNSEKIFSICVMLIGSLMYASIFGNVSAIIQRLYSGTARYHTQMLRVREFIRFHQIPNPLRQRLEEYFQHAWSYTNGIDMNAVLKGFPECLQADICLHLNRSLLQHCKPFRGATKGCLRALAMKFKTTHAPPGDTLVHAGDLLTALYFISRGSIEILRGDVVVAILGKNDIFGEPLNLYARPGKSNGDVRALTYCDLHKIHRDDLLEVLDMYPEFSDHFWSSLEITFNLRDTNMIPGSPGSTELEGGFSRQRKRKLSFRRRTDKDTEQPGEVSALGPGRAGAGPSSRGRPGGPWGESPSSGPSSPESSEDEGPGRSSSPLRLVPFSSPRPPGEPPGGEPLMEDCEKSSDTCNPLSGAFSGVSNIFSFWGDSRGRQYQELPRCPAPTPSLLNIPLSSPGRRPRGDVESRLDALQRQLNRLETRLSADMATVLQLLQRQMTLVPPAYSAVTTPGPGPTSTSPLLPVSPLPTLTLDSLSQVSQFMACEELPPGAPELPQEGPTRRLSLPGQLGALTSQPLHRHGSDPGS
Method: The hERG (human Ether-a-go-go Related Gene) channel inhibition effect of each test compound was examined with the following patch clamp method.
Under a fixed potential, an hERG current that passed through the whole cell membrane was recorded with the whole-cell patch clamp method.
To confirm the hERG current, the holding potential was set to −80 mV, and depolarizing pulses at −50 mV for 110 msec and at 20 mV for 4 sec and a subsequent repolarizing pulse at −50 mV for 2 sec were provided at a frequency of once per 15 seconds. After the stabilization of the hERG tail current obtained was confirmed, an application was initiated. The pulses were continuously provided also during the application.
The sampling frequency was set to 5 kHz, and Lowpass Filter was applied at 2 kHz. […]
hERG currents were measured by using an amplifier for patch clamping (Axopatch 200B, Molecular Devices, LLC), and electric signals obtained were recorded in a computer via recording/analysis software for patch clamping (pCLAMP 10, Molecular Devices, LLC).
The maximum tail current value was determined on the basis of the current value with the depolarizing pulse at −50 mV for 110 msec, and the change rate (suppression rate) 5 minutes after the initiation of application to the maximum tail current value before application of the test compound was calculated.

[3] = molecular target: T1, human recombinant ALDH2 enzyme (Homo sapiens, UniProt P05091); test: ALDH2 activation effect (acetaldehyde oxidation rate, PicoProbe Aldehyde dehydrogenase Activity Assay Kit); format: biochemical
T1 construct: purchased BioVision Inc
T1 sequence (P05091 18-517): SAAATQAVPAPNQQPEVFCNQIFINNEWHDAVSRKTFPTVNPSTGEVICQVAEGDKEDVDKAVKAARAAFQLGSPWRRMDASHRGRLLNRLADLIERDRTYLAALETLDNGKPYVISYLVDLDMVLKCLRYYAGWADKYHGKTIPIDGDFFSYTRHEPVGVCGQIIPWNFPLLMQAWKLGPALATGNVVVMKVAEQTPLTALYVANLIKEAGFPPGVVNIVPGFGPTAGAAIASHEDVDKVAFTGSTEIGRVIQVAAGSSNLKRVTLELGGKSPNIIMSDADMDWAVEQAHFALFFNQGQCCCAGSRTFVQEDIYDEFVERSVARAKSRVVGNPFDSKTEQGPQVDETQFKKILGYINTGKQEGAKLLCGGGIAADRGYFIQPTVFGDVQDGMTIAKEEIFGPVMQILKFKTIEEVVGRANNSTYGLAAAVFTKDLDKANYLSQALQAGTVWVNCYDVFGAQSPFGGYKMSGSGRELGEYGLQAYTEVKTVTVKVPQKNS
Method: The activation effect of each test compound on the acetaldehyde oxidation rate of ALDH2 was measured with the following method. A test was conducted by using a commercially available PicoProbe™ Aldehyde dehydrogenase Activity Assay Kit (manufactured by BioVision Inc.) with reference to an instruction attached to the product under the following conditions. To each well of a 384-well plate, the following (1) to (3) were sequentially added with a pipette: • (1) 10 μL of solution obtained by dissolving and diluting a human recombinant ALDH2 enzyme (manufactured by BioVision Inc.) with ALDH assay Buffer to reach 3-μg/mL; • (2) 10 μL of 30 μM or 90 μM test compound solution (with 3% DMSO) prepared by using ALDH assay Buffer; and • (3) 10 μL of Reaction mix composed with ratio of 8.6 μL of ALDH assay Buffer, 0.6 μL of PicoProbe, 0.3 μL of Substrate Mix, and 1.5 μL of Acetaldehyde.
Before addition of (3), incubation was performed at room temperature for 5 minutes. After addition of (3), fluorescence intensity was measured at room temperature every 2.5 minutes over a period of 180 minutes by using an EnSight (manufactured by PerkinElmer Inc.). Wavelengths of 535 nm and 587 nm were used for fluorescence intensities of excitation and -emission, respectively.

[4] = Metabolic stability with mouse hepatic microsomes; format: in vitro ADME; settings: for Residual rate (%) of unchanged form: mouse hepatic microsomes, after 30 minutes, 37° C., NADPH
Method: Metabolic stability in mouse hepatic microsomes was evaluated with the following method.
• (1) Mouse hepatic microsomes: 20 mg/mL • (2) Test compound: 1.1 mM DMSO solution • (3) Potassium phosphate buffer solution: 66.7 mM (pH 7.4) • (4) NADPH solution: 10 mM in potassium phosphate buffer solution • (5) Quenching solution: 0.5% formic acid-acetonitrile solution with warfarin as internal standard substance 2. Method
Into a propylene tube, 971.5 μL of the potassium phosphate buffer solution and 27.5 μL of the mouse hepatic microsomes were put and suspended. Thereto, 1 μL of a test compound was added, and 180 μL was taken from this mixture and transferred into another tube. The mixture was preincubated at 37° C. for 5 minutes, and 20 μL of the NADPH solution (for the case with an incubation time of 30 minutes) or 20 μL of the potassium phosphate buffer solution (for the case with an incubation time of 0 minutes) was then added thereto. After incubation, 200 μL of the quenching solution was added to terminate the reaction. Subsequently, centrifugation was performed at 3220×g for 20 minutes, and the concentration of the unchanged form of the test compound in 200 μL of the supernatant was measured with LC-MS/MS. On the basis of the peak area obtained for the unchanged form, the residual rate (%) of the unchanged form was calculated as that for the case with an incubation time of 0 minutes was assumed as 100%.

[5] = concentration of test compound 10 μM
[6] = concentration of test compound 30 μM

Residual rate (%) of unchanged form [1] [%]	acetaldehyde oxidation rate (rate with no test compound assumed as 100%) [3, 5] [%]	acetaldehyde oxidation rate (rate with no test compound assumed as 100%) [3, 6] [%]	metabolic stability in mouse hepatic microsomes (in words) [4]	Residual rate (%) of unchanged form [4] [%]	Structure (SMILES)	IC50 [2] [µM]
	149	176		<1	O=C(NCc1ccc2c(c1)OCO2)c1c(Cl)cccc1Cl [Comparative Example 1, reference compound]	
				6	COc1ccc(CNC(=O)c2cc(-c3ncccc3CO)ccc2OCC2CC2)cc1F [Comparative Example 2, reference compound]	
				1	COCc1ccc(CNC(=O)c2c(Cl)cccc2Cl)cc1F [Comparative Example 3, reference compound]	
				<1	COCc1ccc(CNC(=O)c2c(F)cccc2Br)cc1F [Comparative Example 4, reference compound]	
				<1	COCc1ccc(CNC(=O)c2c(F)cccc2Cl)cc1F [Comparative Example 5, reference compound]	
				1	COCc1ccc(CNC(=O)c2c(F)cccc2F)cc1F [Comparative Example 6, reference compound]	
72	124	146	confirmed to have stability	52	CC(O)c1cccnc1-c1ccc(F)c(C(=O)NCc2ccc(COC(F)F)c(F)c2)c1 (stereo not drawn) [Example 5, N-(4-((Difluoromethoxy)methyl)-3-fluorobenzyl)-2-fluoro-5-(3-(1-hydroxyethyl)pyridin-2-yl)benzamide]	
75	139	161	confirmed to have stability	24	COCc1ccc(CNC(=O)c2cc(-c3ncccc3COC)ccc2F)cc1F [Example 6, 2-Fluoro-N-(3-fluoro-4-(methoxymethyl)benzyl)-5-(3-(methoxymethyl)pyridin-2-yl)benzamide]	
	157	170		74	COCc1ccc(CNC(=O)c2cc(-c3n[nH]cc3CO)ccc2Cl)cc1F [Example 7, 2-Chloro-N-(3-fluoro-4-(methoxymethyl)benzyl)-5-(4-(hydroxymethyl)-1H-pyrazol-3-yl)benzamide]	

Structure (SMILES)	Residual rate (%) of unchanged form [1] [%]	acetaldehyde oxidation rate (rate with no test compound assumed as 100%) [3, 5] [%]	acetaldehyde oxidation rate (rate with no test compound assumed as 100%) [3, 6] [%]	metabolic stability in mouse hepatic microsomes (in words) [4]	Residual rate (%) of unchanged form [4] [%]	IC50 [2] [µM]
COCc1ccc(CNC(=O)c2cc(-c3ncccc3C(C)O)ccc2F)cc1F (racemic) [Example 2, Racemic 2-fluoro-N-(3-fluoro-4-(methoxymethyl)benzyl)-5-(3-(1-hydroxyethyl)pyridin-2-yl)benzamide]	87	127	166	confirmed to have stability	68	> 30
COCc1ccc(CNC(=O)c2cc(-c3ncccc3C(C)O)ccc2F)cc1F (single isomer, unassigned) [Example 3, Chiral 2-fluoro-N-(3-fluoro-4-(methoxymethyl)benzyl)-5-(3-(1-hydroxyethyl)pyridin-2-yl)benzamide]		137	176		64	
COCc1ccc(CNC(=O)c2cc(-c3ncccc3C(C)O)ccc2F)cc1F (single isomer, unassigned) [Example 4, Chiral 2-fluoro-N-(3-fluoro-4-(methoxymethyl)benzyl)-5-(3-(1-hydroxyethyl)pyridin-2-yl)benzamide]		131	155		60	
